# From US4877881A, “Process of preparing pyrazoles, isoxazoles and analogs thereof having activity as 5-lipoxygenase inhibitors” (Warner-Lambert Company, priority 1988, dated 1989)
# Target: T1, cyclooxygenase (Rattus norvegicus, UniProt Q63921)
# T1 construct: RBL-1 intact cell cyclooxygenase IC50 values; endogenous in cells; host or cells: RBL-1 rat basophilic leukemia cells (American Type Culture Collection)
# T1 sequence (Q63921 27-602): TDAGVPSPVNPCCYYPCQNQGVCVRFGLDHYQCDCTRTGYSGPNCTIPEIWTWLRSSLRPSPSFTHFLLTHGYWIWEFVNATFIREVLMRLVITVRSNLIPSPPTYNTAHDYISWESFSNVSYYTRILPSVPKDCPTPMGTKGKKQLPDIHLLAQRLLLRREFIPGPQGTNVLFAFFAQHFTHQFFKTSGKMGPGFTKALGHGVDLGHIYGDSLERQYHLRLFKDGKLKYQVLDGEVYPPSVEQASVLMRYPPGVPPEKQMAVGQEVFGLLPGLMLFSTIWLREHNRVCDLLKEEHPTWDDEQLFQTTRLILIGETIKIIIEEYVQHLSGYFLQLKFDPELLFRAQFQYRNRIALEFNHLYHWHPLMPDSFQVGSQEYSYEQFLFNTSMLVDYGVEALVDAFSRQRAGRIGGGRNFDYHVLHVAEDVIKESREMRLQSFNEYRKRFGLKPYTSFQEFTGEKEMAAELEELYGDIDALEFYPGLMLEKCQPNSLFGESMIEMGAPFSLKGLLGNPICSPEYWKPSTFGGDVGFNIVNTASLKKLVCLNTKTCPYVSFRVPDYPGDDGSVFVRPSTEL
# Experiment: ARBC Whole Cell Cyclooxygenase Assay in RBL-1 cells (PGF2α RIA)
# Assay type: cell-based
# Conditions: RBL-1 intact cell cyclooxygenase; A23187 5 μM
# Method: ARBL/ARBC Whole Cell 5-Lipoxygenase and Cyclooxygenase Assays
# The rat basophilic leukemia cell line (RBL-1) was obtained from the American Type Culture Collection (Rockville, Md.).
# Radioimmuno assay (RIA) kits of LTB4 and PGF2α were obtained from Amersham (Arlington Heights, Ill.) and Seragen (Boston, Mass.) respectively.
# All tissue culture media were obtained from GIBO (Gran Island, N.Y.).
# RBL-1 cells were grown in culture (suspension) in Eagle's minimum essential medium supplemented with 12% fetal bovine serum and 1:100 antibiotic-antimycotic mixture at 37° C. in an incubator supplied with air-5% carbon dioxide. Cells were harvested by centrifugation. They were washed with cold phosphate buffered saline pH 7.4 (PBS; NaCl, 7.1 g; Na2 HOP4, 1.15 g; KH2 PO4, 0.2 g; and KCl, 0.2 g/L). […] Calcium ionophore A23187 (5 μM) was added and cells were incubated for seven minutes at 37° C. The reaction was stopped by chilling the tubes in ice for ten minutes. Cells were separated by centrifugation and the supernatant was stored at -20°. Aliquots (100 μl) were analyzed for LTB4 and PGF2α using radioimmuno assay kits as provided by the supplier.
row,IC50 [µM],Structure (SMILES)
1,2.5,"COc1cc(C=Cc2cc(C=Cc3ccc(O)c(OC)c3)[nH]n2)ccc1O [Example 1, 3,5-Bis[β-(4'-hydroxy-3'-methoxyphenyl)ethenyl]pyrazole]"
2,13,"COc1cc(C=Cc2cc(C)n[nH]2)ccc1O [Example 5, 3-[β-(4'-Hydroxy-3'-methoxyphenyl)ethenyl]-5-methylpyrazole]"
3,6.8,"Cc1cc(C=Cc2ccc(O)c(Cl)c2)n[nH]1 [Example 7, 3-[β-(4'-Hydroxy-3'-chlorophenyl)ethenyl]-5-methylpyrazole]"
